# Data taken from patent US20230405143A1, “TYROSINE-BASED ANTIBODY CONJUGATES” (Synaffix B.V., priority 2020, published 2023).
# Test: stability of linker-payload under acidic sample work-up and analysis (MS / RP-HPLC)
# Type: physicochemical
# Conditions: note to FIG. 26
# Protocol: Note: *BCN-HS-PEG2-va-PABC-PBD is not stable under the acidic conditions used in sample work-up and analysis. Therefore, some peak broadening is observed, so conversion was determined by the amount of starting material left.
# Prior to RP-HPLC analysis, IgG (10 μL, 1 mg/mL in PBS pH 7.4) was added to 12.5 mM DTT, 100 mM TrisHCl pH 8.0 (40 μL) and incubated for 15 minutes at 37° C. The reaction was quenched by adding 49% acetonitrile, 49% water, 2% formic acid (50 μL). RP-HPLC analysis was performed on an Agilent 1100 series (Hewlett Packard). The sample (10 μL) was injected with 0.5 mL/min onto Bioresolve RP mAb 2.1*150 mm 2.7 μm (Waters) with a column temperature of 70° C. A linear gradient was applied in 16.8 minutes from 30 to 54% acetonitrile in 0.1% TFA and water.
# Prior to mass spectral analysis, IgG was treated with IdeS, which allows analysis of the Fc/2 fragment. For analysis of the Fc/2 fragment, a solution of 20 μg (modified) IgG was incubated for 1 hour at 37° C. with IdeS/Fabricator™ (1.25 U/μL) in PBS pH 6.6 in a total volume of 10 μL. Samples were diluted to 80 μL followed by analysis electrospray ionization time-of-flight (ESI-TOF) on a JEOL AccuTOF. Deconvoluted spectra were obtained using Magtran software.
substance,measurement,value
BCN-HS-PEG2-va-PABC-PBD,stability under the acidic conditions used in sample work-up and analysis,not stable
